Data on one molecule can be found in patent publication US10799590B2, “Compositions containing a bitter tastant and at least one sophorolipid, and methods of reducing bitter taste attributed to a bitter tastant in an edible composition” (The United States of America, as Represented by the …, priority 2015, dated 2020).

SMILES strings stand for the structures.

For this test, the target named is T1, sweet receptor (T1R2+T1R3) (Homo sapiens, UniProt Q7RTX0).
T1 construct: culture human fungiform taste papillae cells retaining their physiological and molecular characteristics; endogenous in cells; host or cells: cultured primary human fungiform taste papillae (HBO) cells
T1 sequence (Q7RTX0 21-852): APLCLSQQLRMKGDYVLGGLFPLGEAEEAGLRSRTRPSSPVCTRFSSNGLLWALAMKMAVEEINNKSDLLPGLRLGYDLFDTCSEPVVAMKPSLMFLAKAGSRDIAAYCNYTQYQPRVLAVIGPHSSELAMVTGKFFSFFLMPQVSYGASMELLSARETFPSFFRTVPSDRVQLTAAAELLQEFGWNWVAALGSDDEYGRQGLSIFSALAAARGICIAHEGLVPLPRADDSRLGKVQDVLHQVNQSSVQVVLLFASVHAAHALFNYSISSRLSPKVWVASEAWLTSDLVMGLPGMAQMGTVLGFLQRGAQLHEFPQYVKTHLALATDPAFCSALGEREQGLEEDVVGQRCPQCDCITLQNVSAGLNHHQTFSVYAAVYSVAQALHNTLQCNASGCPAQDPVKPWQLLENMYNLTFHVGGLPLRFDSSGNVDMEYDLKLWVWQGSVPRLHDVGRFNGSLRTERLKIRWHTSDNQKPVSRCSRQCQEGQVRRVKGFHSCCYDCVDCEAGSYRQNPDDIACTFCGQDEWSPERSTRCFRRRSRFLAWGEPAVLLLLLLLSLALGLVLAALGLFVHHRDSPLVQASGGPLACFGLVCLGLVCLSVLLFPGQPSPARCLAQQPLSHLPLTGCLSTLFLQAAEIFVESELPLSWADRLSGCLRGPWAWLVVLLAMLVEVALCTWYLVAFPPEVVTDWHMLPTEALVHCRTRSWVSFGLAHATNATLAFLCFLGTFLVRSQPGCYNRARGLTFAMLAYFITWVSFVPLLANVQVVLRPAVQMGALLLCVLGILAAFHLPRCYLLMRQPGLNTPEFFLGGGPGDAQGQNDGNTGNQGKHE
T1 sequence (Q8TE23 20-839 partner): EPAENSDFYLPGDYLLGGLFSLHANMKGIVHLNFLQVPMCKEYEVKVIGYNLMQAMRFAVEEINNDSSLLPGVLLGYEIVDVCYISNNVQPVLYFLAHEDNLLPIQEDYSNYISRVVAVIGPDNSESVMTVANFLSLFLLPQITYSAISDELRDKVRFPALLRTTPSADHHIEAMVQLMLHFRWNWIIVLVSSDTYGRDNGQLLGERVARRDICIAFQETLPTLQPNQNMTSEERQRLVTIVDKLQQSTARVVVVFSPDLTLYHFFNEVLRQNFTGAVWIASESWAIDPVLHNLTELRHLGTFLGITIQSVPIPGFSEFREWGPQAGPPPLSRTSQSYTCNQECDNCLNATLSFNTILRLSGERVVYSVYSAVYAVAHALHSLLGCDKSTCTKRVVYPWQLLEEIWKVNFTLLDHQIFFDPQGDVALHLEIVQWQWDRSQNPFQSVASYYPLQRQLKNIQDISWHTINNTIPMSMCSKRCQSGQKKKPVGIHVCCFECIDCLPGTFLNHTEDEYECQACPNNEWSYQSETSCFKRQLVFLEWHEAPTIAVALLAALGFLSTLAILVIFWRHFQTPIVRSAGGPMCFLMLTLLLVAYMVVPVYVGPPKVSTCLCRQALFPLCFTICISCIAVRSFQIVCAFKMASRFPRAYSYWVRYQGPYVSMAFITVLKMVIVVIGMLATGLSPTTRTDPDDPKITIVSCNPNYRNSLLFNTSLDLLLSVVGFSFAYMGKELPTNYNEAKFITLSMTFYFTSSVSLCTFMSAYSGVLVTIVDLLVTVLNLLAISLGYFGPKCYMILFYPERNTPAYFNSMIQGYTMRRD
In words: Lactisole sensitivity of sophorolipid-induced calcium responses in cultured HBO cells. It is filed as cell-based. The note with it: lactisole = T1R3 blocker; C16-SL-responsive cells n=29 (FIG. 4). The text has this:
In vitro cell-based assay of sweet property. Establishment and maintenance of cultures of human fungiform taste papillae cells (HBO cells): We previously established the current proprietary protocol (Ozdener, H., et al., Chem. Senses, 31(3): 279-90 (2006); Ozdener, M. H., et al., Chem. Senses, 36(7): 601-12 (2011); Ozdener, H., et al., Isolation and culture of human fungiform taste papillae cells, J. Vis. Exp., 2012 May 17;(63):e3730) which allowed us to culture human fungiform taste papillae cells retaining their physiological and molecular characteristics for more than a year.
The human fungiform taste papillae cells were cultured according to protocols that we have published (Ozdener et al. 2006, Ozdener et al. 2011). […]
Calcium imaging: Cultured taste cells grown for 3-4 days glass coverslips which were loaded for 30-60 min with the calcium sensitive dye fura-2 by incubating the cells in Ringer solution (145 mM NaCl, 5 mM KCl, 1 mM MgCl2, 1 mM CaCl2, 1 mM Na-pyruvate, 20 mM Hepes-Na and Cellobiose 15 mM, pH 7.2 with osmolarity adjusted to 300-310 by 5M NaCl) supplemented with […] (Molecular Probes Inc., Eugene, Oreg.) and 10 mg/ml Pluronic® F127 (Molecular Probes Inc.). […] Stimuli were dissolved in Ringer and then pH and osmolarity readjusted if needed. […]

As for `OC[C@H]1O[C@@H](O[C@@H]2[C@@H](O)[C@H](O)[C@@H](CO)O[C@H]2O)[C@H](O)[C@@H](O)[C@@H]1O` [Sophorose, 2-O-β-D-glucopyranosyl-β-D glucopyranose], the “effect of lactisole on induced Ca responses, lactisole-sensitive HBO cells” value is reported as “lactisole sensitive”.
